Data reported in patent publication US20100255104A1, “PHARMACEUTICAL FORMULATION OF TAXANE” (ERIOCHEM S.A., priority 2007, published 2010).

Legend:
[1] = Laboratory solubility tests of docetaxel API versus lyophilized solid composition in tensoactives; assay type: physicochemical; conditions: for solubility in a tensoactive aqueous solution: direct dissolution
[2] = Chemical stability test of solubilized docetaxel by HPLC; assay type: physicochemical; conditions: vial of Example 3, solubilizing composition with 15% DMA, 25° C., 60% relative humidity
Description: The vial of Example 3 containing a solubilizing composition of 15% DMA was subjected to a chemical stability test described as follows:
Immediately after solubilizing docetaxel and at periods of 2, 4, 6 and 8 hours starting from that moment, a sample is taken from the vial using a disposable syringe (1 ml, Darling) with a disposable hypodermic needle (50×8-21Gx2, Neojet). The volume of the sample was 0.5 ml and each sample was weighed and diluted up to a final volume of 10 ml with the mobile phase to be used in HPLC. Reconstituted material remained in a chamber at 25° C. and 60% room relative humidity during the test time.
Mobile phase: Filtered and deaerated mixture of acetonitrile, Methanol, water (26:32:42 v:v:v). The column used was Beckman stainless steel (Ultrasphere ODS of 4.6 mm×25 cm, 5 μm, part N° 235329). The guard column used was Beckman (Ultrasphere ODS of 4.6 mm×4.5 cm, 5 μm, part N° 243533). The detector used was UV type, Waters 2487 dual and the measure was done at wave length 232 nm. The volume injected was 20 μl, using a Waters 717 plus autosampler, and samples were maintained in the autosampler at 4° C. after preparation until the moment of being injected. Retention time for docetaxel is approximately 25 min and run time is 90 min. Flow rate remained 1.0 ml/min using a Waters 1525 binary pump for HPLC. The software used was Breeze version 3.30. The column temperature was 40° C. A standard for the assessment and determination of related substances was prepared, weighing exactly 20 mg of standard docetaxel in a volumetric flask of 50 ml; it was dissolved with 5 ml ethanol and was diluted up to final volume with mobile phase. A solution of impurity 10-deacethilbaccatine III was prepared in order to detect and quantify it in a chromatogram, weighing 5 mg of 10-deacethilbaccatine III, dissolving with 1 ml ethanol and diluting up to final volume, 10 ml, with mobile phase in a volumetric flask. In the same way, a solution of impurity 7-epi-docetaxel was prepared, weighing 10 mg of docetaxel, 10 ml of NaOH 0.005 N were added. It was left to stand for 2 hours; 2.5 ml of ethanol were added and it was diluted to final volume, 25 ml with mobile phase.

Row | solubility in pure polysorbate 80 [1] | solubility in a tensoactive aqueous solution [1] | Docetaxel concentration (percentage of area ratio) ([2]; time 0 hours) | Docetaxel concentration (percentage of area ratio) ([2]; time 2 hours) | Docetaxel concentration (percentage of area ratio) ([2]; time 4 hours) | Docetaxel concentration (percentage of area ratio) ([2]; time 6 hours) | Docetaxel concentration (percentage of area ratio) ([2]; time 8 hours) | Compound
1 | very difficultly | cannot be dissolved directly | – | – | – | – | – | CC(=O)O[C@@]12CO[C@@H]1C[C@H](O)[C@@]1(C)C(=O)[C@H](O)C3=C(C)[C@@H](OC(=O)[C@H](O)[C@@H](NC(=O)OC(C)(C)C)c4ccccc4)C[C@@](O)([C@@H](OC(=O)c4ccccc4)[C@H]21)C3(C)C.O.O.O [trihydrate docetaxel]
2 | very difficultly | cannot be dissolved directly | – | – | – | – | – | CC(=O)O[C@@]12CO[C@@H]1C[C@H](O)[C@@]1(C)C(=O)[C@H](O)C3=C(C)[C@@H](OC(=O)[C@H](O)[C@@H](NC(=O)OC(C)(C)C)c4ccccc4)C[C@@](O)([C@@H](OC(=O)c4ccccc4)[C@H]21)C3(C)C [anhydrous docetaxel]
3 | – | – | 99.61 percentage of area ratio | 99.59 percentage of area ratio | 99.57 percentage of area ratio | 99.57 percentage of area ratio | 99.54 percentage of area ratio | CC(=O)O[C@@]12CO[C@@H]1C[C@H](O)[C@@]1(C)C(=O)[C@H](O)C3=C(C)[C@@H](OC(=O)[C@H](O)[C@@H](NC(=O)OC(C)(C)C)c4ccccc4)C[C@@](O)([C@@H](OC(=O)c4ccccc4)[C@H]21)C3(C)C [Docetaxel]
